According to patent publication US20110128610A1, “PHENOLIC CONFIGURATIONALLY LOCKED POLYENE BULK SINGLE CRYSTALS, CRYSTALLINE THIN FILMS AND WAVEGUIDES FOR ELECTRO-OPTICS AND THZ-WAVE APPLICATIONS” (priority 2008, published 2011):
Values joined by “and” are separate entries in the source; they are usually repeats but may differ in a detail not shown here. Identical values can stand only once. Like-named read-outs stand apart in the source and are kept apart here.

What was measured:
[1] = comparison crystals from literature; cited from earlier work
[2] = comparison crystals from literature [13], [11, 18, 12]; cited from earlier work
[3] = comparison crystals; cited from earlier work
[4] = Solubility of OH1 and comparison crystals in methanol and other organic solvents; format: physicochemical
Procedure: OH1 molecules are dissolved very well in acetone and acetonitrile, and relatively good in ethanol and methanol. We selected methanol as the solvent for growing the crystals because the solubility in acetone is too high and the solute yield on decreasing the temperature is the most efficient in methanol.
The solubility of OH1 in methanol as a function of temperature is shown in FIG. 25; the solid curve is according to the Van't Hoff equation with the solution enthalpy ΔH=29±2 kJ/mol and entropy change ΔS=[…].

Solubility in water = format: physicochemical
[5] = Thermal stability by thermogravimetric analysis (thermal weight-loss temperature Ti); format: physicochemical; settings: TGA under nitrogen atmosphere, scan rate 10° C./min
Procedure: The thermal stability of the OH1 chromophore was investigated using thermogravimetric analysis (TGA) and differential scanning calorimetry (DSC) under nitrogen atmosphere (scan rate: 10° C./min). The melting temperature Tm is defined here as the peak position in the DSC scan. The thermal weight-loss temperature Ti estimated as the temperature at the intercept of the leading edge of the weight loss by the base line of the TGA scans. […] The high thermal stability of OH1 crystals is an advantage for applying a melt-based crystal growth that is difficult for the ionic salts, e.g. DAST that decomposes at the melting temperature.

## CN(C)c1ccc(C=Cc2cc[n+](C)cc2)cc1.Cc1ccc(S(=O)(=O)[O-])cc1 [DAST, 4′-dimethylamino-N-methyl-4-stilbazolium tosylate]
[1]
  thermal weight-loss temperature Ti: 250 °C and 250/250 °C
[2]
  solubility at 40° C. (g/100 g methanol): 3.73 g/100 g methanol
[3]
  solubility in water: highly soluble

## CN(C)c1ccc(C=CC2=CC(=C(C#N)C#N)CC(C)(C)C2)cc1 [DAT2]
[1]
  thermal weight-loss temperature Ti: 293 °C
[2]
  solubility at 40° C. (g/100 g methanol): <0.01 g/100 g methanol
[3]
  solubility in water: insoluble

## CC1(C)CC(/C=C/c2ccc(O)cc2)=CC(=C(C#N)C#N)C1 [OH1, 2-(3-(4-hydroxystyryl)-5,5-dimethylcyclohex-2-enylidene)malononitrile]
[4]; 25° C.
  Solubility in Acetone: 25.9 g/100 g solvent
  Solubility in Acetonitrile: 4.32 g/100 g solvent
  Solubility in Ethanol: 2.34 g/100 g solvent
  Solubility in Methylene chloride: 1.4 g/100 g solvent
[4]; 40° C.
  Solubility in Acetone: 41.8 g/100 g solvent
  Solubility in Acetonitrile: 5.3 g/100 g solvent
  Solubility in Ethanol: 2.5 g/100 g solvent
  Solubility in Methylene chloride: 1.9 g/100 g solvent
[4]; methanol, 25° C.
  Solubility in Methanol: 2.15 g/100 g solvent
[4]; methanol, 40° C.
  solubility at 40° C. (g/100 g methanol): 3.74 g/100 g methanol
[4]; methanol, 40° C. (Table 9)
  Solubility in Methanol: 3.4 g/100 g solvent
Solubility in water
  solubility in water: insoluble

## CC1CC(C=Cc2ccc(O)cc2)=CC(=C(C#N)C#N)C1 (stereo not shown) [OH2, 2-(3-(4-hydroxystyryl)-5-methylcyclohex-2-enylidene)malononitrile]
[5]
  thermal weight-loss temperature Ti: 242/326 °C
